Measurements taken from US5663205A, “Pharmaceutical composition for use in glaucoma treatment” (Senju Pharmaceutical Co. Ltd., priority 1992, dated 1997).
Where a name gives a salt, the structure may show the parent alone. Read-outs that look alike come from different tables or passages of the source.

Key:
[1] = Test Example 7 (1): acute toxicity test in mice; conditions: mouse, in vivo, read-out: 50% lethal dose (LD50)
Experimental: (1) Acute toxicity test of amosulalol hydrochloride with mice:
Investigation was conducted on the acute toxicity of amosulalol hydrochloride in mice through oral administration or intravenous administration.
Amosulalol was given to 7-weeks aged ICR mice by oral administration by use of an oral probe or through a tail vein.

[2] = tested on: choroidal blood flow; conditions: cited from earlier work
[3] = tested on: Normal Intraocular Pressure; assay: Test Example 1 (1): intraocular pressure reducing activity on normal intraocular pressure, pigmented rabbits; type: in vivo, pigmented rabbits (Dutch belted rabbits); conditions: 0.5% ophthalmic solution, 30 min and 1 hour after topical application
Experimental: Intraocular Pressure Reducing Activity of Amosulalol Hydrochloride on Normal Intraocular Pressure in Pigmented Rabbits Male pigmented rabbits (Dutch belted rabbits) weighing about 2 kg, after having been confirmed to be free from ocular abnormalities; were bred in a breeding room maintained at a temperature of 24± 4° C. and at a relative humidity of 55± 15%, while they were given solid food (Labo RG-RO manufactured by Nihon Nohsan Kogyo K.K.) at a daily rate of 100 g per rabbit and allowed free access to tap water as drinking water. As a test drug, amosulalol hydrochloride was processed into 0.05% (hereinafter, the term "%" is to be understood to designate "w/v %") and 1.0% aqueous solutions which were used in the test, and 0.5% timolol maleate ophthalmic solution [Timoptol (registered trademark): Ban-yu Pharmaceutical Co.] and physiological saline were used as a positive control drug and a control substance, respectively. (1) Measurement of intraocular pressure: Thirty two (32) rabbits were divided into four groups each consisting of 8 rabbits, and 50 μl of test drugs as well as the control drug and physiological saline were applied topically to one eye each of the individual rabbits, with the other being left untreated. Before instillation and 0.5, 1, 2, 3, 4, 6 and 8 hours after topical application,intraocular pressure for both of eyes of each rabbit was measured using a Pneumatonograph (manufactured by Alcon Co. Hereinafter referred to briefly as "PTG"). Shown in FIG. 1 are time-course changes of intraocular pressure taken with the eyes treated by instillation of each of the test drugs, control drug and physiological saline, with time (hour) after instillation taken as abscissa and intraocular pressure (mmHg as ordinate; each value in mean±S.E. (number of cases is 8). The signs "a", "b", "d" and "e" designate physiological saline, 0.05% aqueous solution of amosulalol hydrochloride, 1.0% aqueous solution of amosulalol hydrochloride, and 0.5% ophthalmic solution of timolol maleate, respectively.

[4] = tested on: Normal Intraocular Pressure; assay: Test Example 2 (1): intraocular pressure reducing activity on normal intraocular pressure, pigmented rabbits; type: in vivo, pigmented rabbits (Dutch belted rabbits); conditions: 0.5% ophthalmic solution, treated eyes, 30 min and 1 hour after topical application
Experimental: Intraocular Pressure Reducing Activity of Amosulalol Hydrochloride on Normal Intraocular Pressure in Pigmented Rabbits Forty (40) male pigmented rabbits (Dutch belted rabbits) weighing about 2 kg, after having been confirmed to be free from ocular abnormalities, were bred in a breeding room maintained at a temperature of 24± 4° C. and at a relative humidity of 55± 15%, while they were fed solid food (Labo RG-RO, manufactured by Nihon Nohsan Kogyo K.K.) at a daily rate of 100 g per rabbit and allowed free access to tap water as drinking water. As a test drug, amosulalol hydrochloride was processed into 0.05%, 0.5% and 1.0% aqueous solutions which were used in the test, and 0.5% timolol maleate ophthalmic solution [Timoptol (registered trademark): Ban-yu Pharmaceutical Co.] and physiological saline were used as a positive control drug and a control substance, respectively. (1) Measurement of intraocular pressure: Forty (40) rabbits were divided into five groups. each consisting of 8 heads, and 50 μl of test drug as well as the control drug and physiological saline were applied topically to one eye each of the individual rabbits, with the other being left untreated. Before instillation and 0.5, 1, 2, 3, 4, 6 and 8 hours after topical application respectively, intraocular pressure for both eyes of each rabbit was measured using PTG. Time-course changes of intraocular pressure measurements taken with the eyes treated by instillation of each of the test drugs, control drug and physiological saline, are illustrated in FIGS. 2 (for treated eyes) and 3 (for non-treated eyes), respectively, with time (hour) after instillation taken as abscissa and intraocular pressure (mmHg) as ordinate; each value in mean ± S.E. (the number in each case is 8). The signs "a", "b", "c", "d" and "e" designate physiological saline, 0.05% aqueous solution of amosulalol hydrochloride, 0.5% aqueous solution of amosulalol hydrochloride, 1.0% aqueous solution of amosulalol hydrochloride and 0.5% solution of timolol maleate, respectively.

Question: For `COc1ccccc1OCCNCC(O)c1ccc(C)c(S(N)(=O)=O)c1` (stereo not shown) [Amosulalol, 5-[1-hydroxy-2-[2-(2-methoxyphenoxy)ethylamino]ethyl]-2-methylbenzenesulfonamide], which LD50 ([1]; iv, intravenous (tail vein), female mice) is on record?
Answer: 134 mg/kg

Question: What about the LD50 ([1]; iv, intravenous (tail vein), male mice) of the same compound?
Answer: 104 mg/kg

Question: What about the LD50 ([1]; po, female mice) of the same compound?
Answer: 5700 mg/kg

Question: What about the LD50 ([1]; po, male mice) of the same compound?
Answer: 6500 mg/kg

Question: For `CCCC(=O)N1CCCN(c2nc(N)c3cc(OC)c(OC)cc3n2)CC1` [bunazosin hydrochloride], which choroidal blood flow [2] is on record?
Answer: can increase choroidal blood flow

Question: For `CC(C)(C)NC[C@H](O)COc1nsnc1N1CCOCC1` [timolol maleate, reference compound], which “drop in intraocular pressure” value [3] is on record?
Answer: 2.4 mmHg

Question: What about the “drop in intraocular pressure” value [4] of the same compound?
Answer: 2.4 mmHg
